≈ marks a conversion by molar mass, not a printed value.
test system: SA 9218; experiment: MIC by standard agar dilution method; format: cell-based; conditions: Mueller Hinton agar, 10^4 to 10^5 cells per spot, incubated overnight at 35° C., lowest concentration that inhibits visible growth
From the text: The antibacterial agents of this invention have useful activity against a variety of organisms. The in vitro activity of compounds of this invention can be assessed by standard testing procedures such as the determination of minimum inhibitory concentration (MIC) by agar dilution as described in “Approved Standard. Methods for Dilution Antimicrobial Susceptibility Tests for Bacteria That Grow Aerobically”, 3rd. ed., published 1993 by the National Committee for Clinical Laboratory Standards, Villanova, Pa., USA. The in vitro MICs of test compounds were determined by a standard agar dilution method. A stock drug solution of each analog was prepared in the preferred solvent, usually DMSO:H2O (1:3). Serial 2-fold dilutions of each sample are made using 1.0 ml aliquots of sterile distilled water. To each 1.0 ml aliquot of drug was added 9 ml of molten Mueller Hinton agar medium. The drug-supplemented agar was mixed, poured into 15×100 mm petri dishes, and allowed to solidify and dry prior to inoculation. Vials of each of the test organisms are maintained frozen in the vapor phase of a liquid nitrogen freezer. Test cultures are grown overnight at 35° C. on the medium appropriate for the organism. Colonies are harvested with a sterile swab, and cell suspensions are prepared in Trypticase Soy broth (TSB) to equal the turbidity of a 0.5 McFarland standard. A 1:20 dilution of each suspension was made in TSB. The plates containing the drug supplemented agar are inoculated with a 0.001 ml drop of the cell suspension using a Steers replicator, yielding approximately 10^4 to 10^5 cells per spot. The plates are incubated overnight at 35° C. Following incubation the Minimum Inhibitory Concentration (MIC μg/ml), the lowest concentration of drug that inhibits visible growth of the organism, was read and recorded.

| MIC [µg/mL] | Structure (SMILES) |
| --- | --- |
| 16 (≈ 32.7 µM) | Cc1ccc(S(=O)(=O)Nc2ccc(C(=O)Nc3ccc(Br)cc3C(=O)O)cc2)cc1 |
| 4 (≈ 6.86 µM) | O=C(Nc1ccc(I)cc1C(=O)O)c1ccc(S(=O)(=O)N2CCc3ccc(Cl)cc32)cc1 |
| 16 (≈ 37.8 µM) | CN(C)c1ccc(C(=O)c2ccc(C(=O)Nc3ccc(Cl)cc3C(=O)O)cc2)cc1 |
| 16 (≈ 39.4 µM) | CCCCCOc1ccc(C(=O)Nc2ccc(Br)cc2C(=O)O)cc1 |
| 64 (≈ 169 µM) | CC(C)Oc1ccc(C(=O)Nc2ccc(Br)cc2C(=O)O)cc1 |
| 64 (≈ 123 µM) | Nc1ccc(CCNS(=O)(=O)c2ccc(C(=O)Nc3ccc(Br)cc3C(=O)O)cc2)cc1 |
| 8 (≈ 21.3 µM) | C=CCOc1cccc(C(=O)Nc2ccc(Br)cc2C(=O)O)c1 |
| 2 (≈ 3.67 µM) | COc1ccc(C(=O)Nc2ccc(Br)cc2C(=O)O)cc1S(=O)(=O)NC1Cc2ccccc2C1 |
| 16 (≈ 37.5 µM) | O=C(Nc1ccc(Br)cc1C(=O)O)c1ccc(OCc2ccccc2)cc1 |
| 1 (≈ 1.94 µM) | O=C(Nc1ccc(Br)cc1C(=O)O)c1cccc(S(=O)(=O)NC2Cc3ccccc3C2)c1 |
| 8 (≈ 15 µM) | Cc1ccc(C(=O)Nc2ccc(Br)cc2C(=O)O)cc1S(=O)(=O)NCCc1ccc(N)cc1 |
| 16 (≈ 25.5 µM) | Cc1ccc(C(=O)Nc2ccc(Br)cc2C(=O)O)cc1S(=O)(=O)N1CCN(c2cccc(C(F)(F)F)c2)CC1 |
| 0.25 (≈ 0.472 µM) | Cc1ccc(C(=O)Nc2ccc(Br)cc2C(=O)O)cc1S(=O)(=O)NC1Cc2ccccc2C1 |
| 16 (≈ 26.1 µM) | O=C(Nc1ccc(Br)cc1C(=O)O)c1cccc(S(=O)(=O)N2CCN(c3cccc(C(F)(F)F)c3)CC2)c1 |
| 0.25 (≈ 0.421 µM) | O=C(Nc1ccc(Br)cc1C(=O)O)c1cc(S(=O)(=O)NC2Cc3ccccc3C2)ccc1Br |
| 8 (≈ 13.1 µM) | COc1ccc(C(=O)Nc2ccc(Br)cc2C(=O)O)cc1S(=O)(=O)N1CCN(c2ccc(Cl)cc2)CC1 |
| > 128 | CCN(Cc1ccncc1)S(=O)(=O)c1ccc(C)c(C(=O)Nc2ccc(Br)cc2C(=O)O)c1 |
| 16 (≈ 32.9 µM) | COc1cc(COc2cccc(C(=O)Nc3ccc(Br)cc3C(=O)O)c2)cc(OC)c1 |
| 8 (≈ 11.6 µM) | O=C(Nc1ccc(Br)cc1C(=O)O)c1ccc(Br)c(S(=O)(=O)N2CCN(c3cccc(C(F)(F)F)c3)CC2)c1 |
| 32 (≈ 54 µM) | Cc1ccc(S(=O)(=O)N2CCN(c3ccc(Cl)cc3)CC2)cc1C(=O)Nc1ccc(Br)cc1C(=O)O |
| 32 (≈ 95.2 µM) | O=C(Nc1ccc(Br)cc1C(=O)O)c1cccc(O)c1 |
| > 128 | COc1ccc(C(=O)Nc2ccc(Br)cc2C(=O)O)cc1S(=O)(=O)NCc1ccc(N(C)C)cc1 |
| 16 (≈ 40.6 µM) | COCCOc1cccc(C(=O)Nc2ccc(Br)cc2C(=O)O)c1 |

| MIC [µg/mL] | Structure (SMILES) |
| --- | --- |
| 2 (≈ 4.33 µM) | CCCC(=O)C(CCC)Oc1cccc(C(=O)Nc2ccc(Br)cc2C(=O)O)c1 (centres unmarked) |
| 4 (≈ 8.26 µM) | COC(=O)C(Oc1cccc(C(=O)Nc2ccc(Br)cc2C(=O)O)c1)c1ccccc1 (centres unmarked) |
| 32 (≈ 95.2 µM) | O=C(Nc1ccc(Br)cc1C(=O)O)c1ccc(O)cc1 |
| 8 (≈ 17.3 µM) | Cc1ncsc1CCOc1cccc(C(=O)Nc2ccc(Br)cc2C(=O)O)c1 |
| 64 (≈ 176 µM) | CCOc1cccc(C(=O)Nc2ccc(Br)cc2C(=O)O)c1 |
| 32 (≈ 71.5 µM) | O=C(Nc1ccc(Br)cc1C(=O)O)c1cccc(OCCN2CCCC2=O)c1 |
| 32 (≈ 70.7 µM) | CCOCCOCCOc1cccc(C(=O)Nc2ccc(Br)cc2C(=O)O)c1 |
| 32 (≈ 61.4 µM) | Cc1oc(-c2ccccc2)nc1CCOc1cccc(C(=O)Nc2ccc(Br)cc2C(=O)O)c1 |
| 32 (≈ 78.4 µM) | COC(=O)COc1cccc(C(=O)Nc2ccc(Br)cc2C(=O)O)c1 |
| 8 (≈ 17.2 µM) | CCCC(Oc1cccc(C(=O)Nc2ccc(Br)cc2C(=O)O)c1)C(=O)OCC (centres unmarked) |
| 32 (≈ 74.9 µM) | O=C(Nc1ccc(Br)cc1C(=O)O)c1cccc(OCc2cccnc2)c1 |
| 128 (≈ 281 µM) | O=C(Nc1ccc(Br)cc1C(=O)O)c1ccc(OCCOc2ccccc2)cc1 |
| 16 (≈ 38.1 µM) | O=C(Nc1ccc(Br)cc1C(=O)O)c1cccc(OCC2CCOC2)c1 (centres unmarked) |
| 64 (≈ 152 µM) | CC(=O)NCCOc1ccc(C(=O)Nc2ccc(Br)cc2C(=O)O)cc1 |
| 32 (≈ 68.5 µM) | O=C(Nc1ccc(Br)cc1C(=O)O)c1cccc(OCn2nnc3ccccc32)c1 |
| 128 (≈ 283 µM) | CCOCCOCCOc1ccc(C(=O)Nc2ccc(Br)cc2C(=O)O)cc1 |
| 64 (≈ 176 µM) | CCOc1ccc(C(=O)Nc2ccc(Br)cc2C(=O)O)cc1 |
| 8 (≈ 17.5 µM) | COc1cccc(COc2ccc(C(=O)Nc3ccc(Br)cc3C(=O)O)cc2)c1 |
| 128 (≈ 265 µM) | CN(CCOc1ccc(C(=O)Nc2ccc(Br)cc2C(=O)O)cc1)Cc1ccccc1 |
| 64 (≈ 157 µM) | COC(=O)COc1ccc(C(=O)Nc2ccc(Br)cc2C(=O)O)cc1 |
| 128 (≈ 325 µM) | COCCOc1ccc(C(=O)Nc2ccc(Br)cc2C(=O)O)cc1 |
| 64 (≈ 150 µM) | O=C(Nc1ccc(Br)cc1C(=O)O)c1ccc(OCc2cccnc2)cc1 |
| 16 (≈ 38.4 µM) | CCC#CCCOc1ccc(C(=O)Nc2ccc(Br)cc2C(=O)O)cc1 |

| MIC [µg/mL] | Structure (SMILES) |
| --- | --- |
| 64 (≈ 136 µM) | COC(COc1ccc(C(=O)Nc2ccc(Br)cc2C(=O)O)cc1)c1ccccc1 (centres unmarked) |
| 64 (≈ 123 µM) | Nc1ccc(CCNS(=O)(=O)c2cccc(C(=O)Nc3ccc(Br)cc3C(=O)O)c2)cc1 |
| 32 (≈ 61.7 µM) | CCN(Cc1ccncc1)S(=O)(=O)c1cccc(C(=O)Nc2ccc(Br)cc2C(=O)O)c1 |
| 64 (≈ 150 µM) | CCNS(=O)(=O)c1cccc(C(=O)Nc2ccc(Br)cc2C(=O)O)c1 |
| 8 (≈ 11.6 µM) | O=C(Nc1ccc(Br)cc1C(=O)O)c1cc(S(=O)(=O)N2CCN(c3cccc(C(F)(F)F)c3)CC2)ccc1Br |
| 64 (≈ 227 µM) | N#Cc1ccc(NC(=O)c2ccc(O)cc2)c(C(=O)O)c1 |
| 32 (≈ 52.7 µM) | O=C(Nc1ccc(Br)cc1C(=O)O)c1cc(S(=O)(=O)Nc2ccc(F)c(Cl)c2)ccc1Br |
| > 128 | COc1ccc(C(=O)Nc2ccc(Br)cc2C(=O)O)cc1S(=O)(=O)Nc1ccc(Cl)c2ccccc12 |
| 2 (≈ 3.45 µM) | O=C(Nc1ccc(Br)cc1C(=O)O)c1cc(S(=O)(=O)N2CCc3ccccc32)ccc1Br |
| 64 (≈ 108 µM) | COc1ccc(C(=O)Nc2ccc(Br)cc2C(=O)O)cc1S(=O)(=O)Nc1ccc(N2CCOCC2)cc1 |
| > 128 | Cc1ccc(S(=O)(=O)NCCc2ccc(N)cc2)cc1C(=O)Nc1ccc(Br)cc1C(=O)O |
| 16 (≈ 25.5 µM) | Cc1ccc(S(=O)(=O)N2CCN(c3cccc(C(F)(F)F)c3)CC2)cc1C(=O)Nc1ccc(Br)cc1C(=O)O |
| 128 (≈ 214 µM) | CCN(Cc1ccncc1)S(=O)(=O)c1cc(C(=O)Nc2ccc(Br)cc2C(=O)O)ccc1Br |
| > 128 | O=C(Nc1ccc(Br)cc1C(=O)O)c1cc(S(=O)(=O)Nc2ccc(F)c(Cl)c2)c(F)cc1Cl |
| 16 (≈ 37.7 µM) | O=C(Nc1ccc(Br)cc1C(=O)O)c1ccc(/N=N/c2ccccc2)cc1 |
| 64 (≈ 105 µM) | O=C(Nc1ccc(Br)cc1C(=O)O)c1ccc(Br)c(S(=O)(=O)Nc2ccc3c(c2)OCCO3)c1 |
| 128 (≈ 379 µM) | O=C(Nc1ccc(Br)cc1C(=O)O)c1ccccc1F |
| 32 (≈ 49.8 µM) | COc1ccc(C(=O)Nc2ccc(Br)cc2C(=O)O)cc1S(=O)(=O)N1CCN(c2cccc(C(F)(F)F)c2)CC1 |
| > 128 | N#Cc1ccc(NC(=O)c2cccc3cccc(C=O)c23)c(C(=O)O)c1 |
| 2 (≈ 4.49 µM) | CC(C)CN1C(=O)c2ccc(C(=O)Nc3ccc(Br)cc3C(=O)O)cc2C1=O |
| 8 (≈ 25.9 µM) | CN(C)c1cccc(C(=O)Nc2ccc(C#N)cc2C(=O)O)c1 |
| 8 (≈ 16.9 µM) | O=C(Nc1ccc(Br)cc1C(=O)O)c1ccc2c(c1)C(=O)N(CC1CCCO1)C2=O (centres unmarked) |
| 8 (≈ 27.4 µM) | C=Cc1ccc(C(=O)Nc2ccc(C#N)cc2C(=O)O)cc1 |

| MIC [µg/mL] | Structure (SMILES) |
| --- | --- |
| 32 (≈ 81 µM) | COc1ccc(C(=O)Nc2ccc(Br)cc2C(=O)O)cc1[N+](=O)[O-] |
| 64 (≈ 180 µM) | COc1cc(C(=O)Nc2ccc(C#N)cc2C(=O)O)cc(OC)c1OC |
| 128 (≈ 317 µM) | CN1C(=O)c2ccc(C(=O)Nc3ccc(Br)cc3C(=O)O)cc2C1=O |
| 64 (≈ 187 µM) | N#Cc1ccc(NC(=O)c2ccc(-c3ccccc3)cc2)c(C(=O)O)c1 |
| > 128 | COc1cc(C(=O)Nc2ccc(C#N)cc2C(=O)O)ccc1C |
| > 128 | COc1cc(C(=O)Nc2ccc(C#N)cc2C(=O)O)c([N+](=O)[O-])cc1OC |
| > 128 | N#Cc1ccc(C(=O)Nc2ccc(C#N)cc2C(=O)O)cc1 |
| 2 (≈ 6.32 µM) | N#Cc1ccc(NC(=O)c2ccc3ccccc3c2)c(C(=O)O)c1 |
| 64 (≈ 225 µM) | N#Cc1ccc(NC(=O)c2cccc(F)c2)c(C(=O)O)c1 |
| 16 (≈ 40.2 µM) | CCOc1cc(C(=O)Nc2ccc(C#N)cc2C(=O)O)cc(OCC)c1OCC |
| 2 (≈ 6.13 µM) | CCSc1ccc(C(=O)Nc2ccc(C#N)cc2C(=O)O)cc1 |
| 16 (≈ 54 µM) | COc1ccc(C(=O)Nc2ccc(C#N)cc2C(=O)O)cc1 |
| 16 (≈ 47.4 µM) | CCN(CC)c1ccc(C(=O)Nc2ccc(C#N)cc2C(=O)O)cc1 |
| > 128 | CCN(CC)C(=O)c1c(F)ccc(F)c1C(=O)Nc1ccc(C#N)cc1C(=O)O |
| 64 (≈ 196 µM) | COc1ccc(C(=O)Nc2ccc(C#N)cc2C(=O)O)cc1OC |
| 16 (≈ 49.3 µM) | CCCOc1ccc(C(=O)Nc2ccc(C#N)cc2C(=O)O)cc1 |
| 128 (≈ 361 µM) | CCOc1ccc(C(=O)Nc2ccc(C#N)cc2C(=O)O)cc1OCC |
| 16 (≈ 51.6 µM) | N#Cc1ccc(NC(=O)c2ccc3c(c2)OCO3)c(C(=O)O)c1 |
| 32 (≈ 103 µM) | CCOc1ccc(C(=O)Nc2ccc(C#N)cc2C(=O)O)cc1 |
| > 128 | COc1ccc(CCOc2ccc(C(=O)Nc3ccc(Br)cc3C(=O)O)cc2)cc1 |
| > 128 | N#Cc1ccc(NC(=O)c2cccc3c2C(=O)c2ccccc2-3)c(C(=O)O)c1 |
| 32 (≈ 68 µM) | COc1ccc(CCOc2cccc(C(=O)Nc3ccc(Br)cc3C(=O)O)c2)cc1 |
| 4 (≈ 11.4 µM) | CCCCCOc1ccc(C(=O)Nc2ccc(C#N)cc2C(=O)O)cc1 |

— patent publication US20050113450A1, “Antibacterial agents” (priority 2002, published 2005)
